Source: paper PMC12951562, “SH2scan: Mapping SH2 Domain-Ligand Binding Selectivity for Inhibitors and Degraders” (Journal of Medicinal Chemistry, 2026)
Where two headings read alike, the source gives them in different places. Non-standard residues stand in square brackets, D forms with d. Residues, ends and D or L forms follow the SMILES beside them. *: point of attachment. pY = N[C@@H](Cc1ccc(OP(=O)(O)O)cc1)C(=O)O; Caffeoyl = O=C(/C=C/c1ccc(O)c(O)c1)*

Assays:
Assay in all cases: biochemical
Format in all cases: binding
BLNK = target: T1, BLNK (Homo sapiens, UniProt Q8WV28); conditions: for remaining activity at 10 µM: read-out: percent of DMSO vehicle control
T1 construct: the DNA-tagged SH2 domain concentrations used in this study were <0.1 nM; made in house; host or cells: HEK293 (transient transfection; unpurified extract)
T1 sequence (Q8WV28 346-453 limits assumed): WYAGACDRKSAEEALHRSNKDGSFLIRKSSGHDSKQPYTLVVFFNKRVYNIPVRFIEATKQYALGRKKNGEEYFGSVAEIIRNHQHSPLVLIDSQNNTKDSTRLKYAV

BRK = target: T2, BRK (Homo sapiens, UniProt Q13882); conditions: for remaining activity at 10 µM: read-out: percent of DMSO vehicle control
T2 construct: the DNA-tagged SH2 domain concentrations used in this study were <0.1 nM; made in house; host or cells: HEK293 (transient transfection; unpurified extract)

CRKL = target: T3, CRKL (Homo sapiens, UniProt P46109)
T3 construct: the DNA-tagged SH2 domain concentrations used in this study were <0.1 nM; made in house; host or cells: HEK293 (transient transfection; unpurified extract)

DAPP1 = target: T4, DAPP1 (Homo sapiens, UniProt Q9UN19)
T4 construct: the DNA-tagged SH2 domain concentrations used in this study were <0.1 nM; made in house; host or cells: HEK293 (transient transfection; unpurified extract)
T4 sequence (Q9UN19 35-129 limits assumed): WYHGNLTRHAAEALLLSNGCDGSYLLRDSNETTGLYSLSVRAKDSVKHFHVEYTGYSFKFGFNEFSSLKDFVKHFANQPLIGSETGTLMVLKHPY

FES = target: T5, FES (Homo sapiens, UniProt P07332); conditions: for remaining activity at 10 µM: read-out: percent of DMSO vehicle control
T5 construct: the DNA-tagged SH2 domain concentrations used in this study were <0.1 nM; made in house; host or cells: HEK293 (transient transfection; unpurified extract)

FYN = target: T6, FYN (Homo sapiens, UniProt P06241)
T6 construct: the DNA-tagged SH2 domain concentrations used in this study were <0.1 nM; made in house; host or cells: HEK293 (transient transfection; unpurified extract)

GRB2 = target: T7, GRB2 (Homo sapiens, UniProt P62993); conditions: for percent of DMSO vehicle control: primary screen, 10 μM
T7 construct: the DNA-tagged SH2 domain concentrations used in this study were <0.1 nM; made in house; host or cells: HEK293 (transient transfection; unpurified extract)

MATK = target: T8, MATK (Homo sapiens, UniProt P42679)
T8 construct: the DNA-tagged SH2 domain concentrations used in this study were <0.1 nM; made in house; host or cells: HEK293 (transient transfection, unpurified extract)
T8 sequence (P42679 122-211 limits assumed): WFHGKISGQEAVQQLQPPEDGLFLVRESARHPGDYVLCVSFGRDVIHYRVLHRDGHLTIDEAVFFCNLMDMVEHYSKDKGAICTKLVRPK

NCK1 = target: T9, NCK1 (Homo sapiens, UniProt P16333); conditions: for remaining activity at 10 µM: read-out: percent of DMSO vehicle control
T9 construct: the DNA-tagged SH2 domain concentrations used in this study were <0.1 nM; made in house; host or cells: HEK293 (transient transfection, unpurified extract)

RASA1(SH2dom.C-term.) = target: T10, RASA1(SH2dom.C-term.) (Homo sapiens, UniProt P20936); conditions: for remaining activity at 10 µM: read-out: percent of DMSO vehicle control
T10 construct: SH2dom.C-term. denotes SH2 domain closest to C-terminus of protein; made in house; host or cells: HEK293 (transient transfection, unpurified extract)
T10 sequence (P20936 351-441 limits assumed): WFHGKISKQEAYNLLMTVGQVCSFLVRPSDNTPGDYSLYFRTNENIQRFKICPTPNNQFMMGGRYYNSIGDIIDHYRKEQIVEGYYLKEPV

SHC4 = target: T11, SHC4 (Homo sapiens, UniProt Q6S5L8); conditions: for remaining activity at 10 µM: read-out: percent of DMSO vehicle control
T11 construct: made in house; host or cells: HEK293 (transient transfection), unpurified extract
T11 sequence (Q6S5L8 1-630): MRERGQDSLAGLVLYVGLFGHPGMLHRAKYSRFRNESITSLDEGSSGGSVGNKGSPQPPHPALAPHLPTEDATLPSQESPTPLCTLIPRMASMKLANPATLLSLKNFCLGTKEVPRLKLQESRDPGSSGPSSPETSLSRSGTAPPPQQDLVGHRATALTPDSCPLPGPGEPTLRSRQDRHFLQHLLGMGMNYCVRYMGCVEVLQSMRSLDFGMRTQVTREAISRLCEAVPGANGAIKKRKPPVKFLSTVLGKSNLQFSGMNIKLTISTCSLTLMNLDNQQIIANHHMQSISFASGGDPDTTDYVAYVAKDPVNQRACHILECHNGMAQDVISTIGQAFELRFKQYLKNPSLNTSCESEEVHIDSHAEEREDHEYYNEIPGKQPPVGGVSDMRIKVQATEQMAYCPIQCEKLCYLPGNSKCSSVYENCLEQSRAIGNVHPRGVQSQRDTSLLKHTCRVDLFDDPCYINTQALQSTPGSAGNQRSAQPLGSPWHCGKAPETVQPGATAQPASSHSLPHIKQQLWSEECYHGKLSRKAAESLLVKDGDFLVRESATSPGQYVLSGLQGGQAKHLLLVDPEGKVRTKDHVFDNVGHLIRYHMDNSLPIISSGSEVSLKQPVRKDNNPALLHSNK

SRC = target: T12, SRC (Homo sapiens, UniProt P12931); conditions: for remaining activity at 10 µM: read-out: percent of DMSO vehicle control
T12 construct: made in house; host or cells: HEK293 (transient transfection), unpurified extract

VAV3 = target: T13, VAV3 (Homo sapiens, UniProt Q9UKW4)
T13 construct: made in house; host or cells: HEK293 (transient transfection), unpurified extract
T13 sequence (Q9UKW4 1-847): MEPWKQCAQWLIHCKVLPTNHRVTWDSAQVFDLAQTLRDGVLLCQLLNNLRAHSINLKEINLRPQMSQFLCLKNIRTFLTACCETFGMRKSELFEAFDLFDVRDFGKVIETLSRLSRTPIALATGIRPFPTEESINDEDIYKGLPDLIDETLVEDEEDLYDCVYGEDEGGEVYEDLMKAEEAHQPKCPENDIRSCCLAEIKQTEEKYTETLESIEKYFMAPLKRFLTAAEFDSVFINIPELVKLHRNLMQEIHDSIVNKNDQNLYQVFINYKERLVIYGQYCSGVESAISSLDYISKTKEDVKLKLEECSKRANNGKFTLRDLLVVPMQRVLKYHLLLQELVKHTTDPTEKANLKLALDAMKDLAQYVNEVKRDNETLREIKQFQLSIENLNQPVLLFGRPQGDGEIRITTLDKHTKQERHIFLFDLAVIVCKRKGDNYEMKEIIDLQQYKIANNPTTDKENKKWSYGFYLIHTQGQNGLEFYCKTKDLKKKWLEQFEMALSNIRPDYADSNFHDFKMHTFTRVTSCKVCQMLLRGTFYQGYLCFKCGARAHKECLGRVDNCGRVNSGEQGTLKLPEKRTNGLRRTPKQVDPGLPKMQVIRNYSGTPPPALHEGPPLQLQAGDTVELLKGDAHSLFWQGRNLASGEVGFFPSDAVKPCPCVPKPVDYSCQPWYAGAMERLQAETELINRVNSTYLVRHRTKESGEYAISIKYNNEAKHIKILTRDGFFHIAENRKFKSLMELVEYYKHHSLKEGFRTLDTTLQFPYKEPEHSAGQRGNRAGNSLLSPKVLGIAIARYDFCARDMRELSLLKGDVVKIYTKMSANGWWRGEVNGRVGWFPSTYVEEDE

[1] = read-out: percent of DMSO vehicle control
[2] = primary screen, 10 μM, read-out: percent of DMSO vehicle control

T5 sequence (P07332 460-549 limits assumed): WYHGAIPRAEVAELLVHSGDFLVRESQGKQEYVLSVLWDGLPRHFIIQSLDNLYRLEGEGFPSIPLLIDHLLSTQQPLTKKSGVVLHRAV
T6 sequence (P06241 149-246 limits assumed): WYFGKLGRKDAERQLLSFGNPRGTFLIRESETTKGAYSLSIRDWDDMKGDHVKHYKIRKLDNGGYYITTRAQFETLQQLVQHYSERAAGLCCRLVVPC
T7 sequence (P62993 60-152 limits assumed): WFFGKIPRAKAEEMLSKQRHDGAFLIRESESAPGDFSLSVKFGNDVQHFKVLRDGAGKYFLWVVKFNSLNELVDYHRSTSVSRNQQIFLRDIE
T2 sequence (Q13882 78-170 limits assumed): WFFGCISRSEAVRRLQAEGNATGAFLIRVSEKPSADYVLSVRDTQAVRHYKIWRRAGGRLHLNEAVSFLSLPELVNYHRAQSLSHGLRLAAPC
T3 sequence (P46109 14-102 limits assumed): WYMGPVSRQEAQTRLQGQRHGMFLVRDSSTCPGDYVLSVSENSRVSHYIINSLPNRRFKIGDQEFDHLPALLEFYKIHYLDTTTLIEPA
T12 sequence (P12931 whole entry): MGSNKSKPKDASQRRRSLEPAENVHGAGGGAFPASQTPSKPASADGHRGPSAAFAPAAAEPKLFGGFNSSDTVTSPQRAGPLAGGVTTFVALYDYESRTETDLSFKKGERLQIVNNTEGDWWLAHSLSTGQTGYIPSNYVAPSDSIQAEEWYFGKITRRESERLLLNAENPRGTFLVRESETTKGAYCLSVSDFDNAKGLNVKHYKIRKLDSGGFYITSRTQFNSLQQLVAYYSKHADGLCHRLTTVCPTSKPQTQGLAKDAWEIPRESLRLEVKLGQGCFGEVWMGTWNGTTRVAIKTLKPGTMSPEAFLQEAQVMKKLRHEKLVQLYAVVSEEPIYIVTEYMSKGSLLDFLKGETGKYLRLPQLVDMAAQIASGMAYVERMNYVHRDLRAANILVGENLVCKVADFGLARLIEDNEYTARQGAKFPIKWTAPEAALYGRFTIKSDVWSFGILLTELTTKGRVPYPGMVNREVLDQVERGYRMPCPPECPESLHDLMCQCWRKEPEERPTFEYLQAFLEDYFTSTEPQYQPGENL

Structure (SMILES)	Kd (FES) [nM]	Kd (FYN) [nM]	percent of DMSO vehicle control (GRB2) [%]	remaining activity at 10 µM (BLNK) [%]	remaining activity at 10 µM (BRK) [%]	percent of DMSO vehicle control at 10 µM (CRKL; [1]) [%]	percent of DMSO vehicle control at 10 µM (DAPP1; [1]) [%]	remaining activity at 10 µM (FES) [%]	percent of DMSO vehicle control at 10 µM (FYN; [1]) [%]	percent of DMSO vehicle control at 10 µM (MATK; [1]) [%]	remaining activity at 10 µM (NCK1) [%]	remaining activity at 10 µM (RASA1(SH2dom.C-term.)) [%]	remaining activity at 10 µM (SHC4) [%]	remaining activity at 10 µM (SRC) [%]	Kd (VAV3) [nM]	percent of DMSO vehicle control at 10 µM (VAV3; [1]) [%]	also measured
CC[C@H](C)[C@H](NC(=O)[C@H](CCC(=O)O)NC(=O)[C@H](CCC(=O)O)NC(=O)[C@H](Cc1ccc(OP(=O)(O)O)cc1)NC(C)=O)C(=O)N[C@@H](CCC(=O)O)C(N)=O [Ac-pYEEIE-NH2] (Ac-[pY]EEIE-NH2)	4200	3300	77.1	–	–	–	–	–	–	–	–	–	–	–	–	–	percent of DMSO vehicle control (BLNK; primary screen, 10 μM): 118.9%; percent of DMSO vehicle control (BRK; primary screen, 10 μM): 101.4%; percent of DMSO vehicle control (CRKL; primary screen, 10 μM): 131.3%; percent of DMSO vehicle control (DAPP1; primary screen, 10 μM): 134.5%; percent of DMSO vehicle control (FES; primary screen, 10 μM): 24.1±2.4%; percent of DMSO vehicle control (FYN; primary screen, 10 μM): 21.2±2.5%; percent of DMSO vehicle control (MATK; primary screen, 10 μM): 197.1%; percent of DMSO vehicle control (NCK1; primary screen, 10 μM): 90.1%; percent of DMSO vehicle control (RASA1(SH2dom.C-term.); primary screen, 10 μM): 119.3%; percent of DMSO vehicle control (SHC4; primary screen, 10 μM): 119.5%; percent of DMSO vehicle control (SRC; primary screen, 10 μM): 68.6±4.6%; percent of DMSO vehicle control (VAV3; primary screen, 10 μM): 75.8%
CC(=O)N[C@@H](Cc1ccc(CP(=O)(O)O)cc1)C(=O)NC1(C(=O)N[C@@H](CC(N)=O)C(=O)NCCCc2c(O)ccc3ccccc23)CCCCC1 [CGP78850]	–	–	0.0±0.0	117 ± 7.1	117 ± 12.5	36.4 ± 18.5	136 ± 2.8	52 ± 0.5	53.7 ± 4.6	153 ± 7.1	104 ± 4.8	131 ± 42.7	108 ± 7.4	99.2 ± 4.1	860	21.7 ± 3.7	Kd (GRB2): 3.4 nM
CC[C@H](C)[C@H](NC(=O)[C@H](CCC(=O)O)NC(=O)[C@H](CCC(=O)O)NC(=O)[C@H](Cc1ccc(OP(=O)(O)O)cc1)NC(=O)/C=C/c1ccc(O)c(O)c1)C(=O)N[C@@H](CCC(=O)O)C(=O)O [Caffeic acid-pYEEIE] (Caffeoyl-[pY]EEIE-OH)	24 ± 4.9	0.53	73.4±9.2	3.2 ± 0.6	0	42.1 ± 6	39.2 ± 3.2	2.2 ± 0.4	0	83.8 ± 3.5	0.8 ± 0.1	78 ± 6.4	0	0	70 ± 12	0.4 ± 0.1	Kd (BLNK): 240 ± 24 nM; Kd (BRK): 24 ± 3.9 nM; Kd (NCK1): 97 ± 71 nM; Kd (SHC4): 39 ± 6.1 nM; Kd (SRC): 4.8 ± 1.3 nM
O=C(CCl)Nc1cccc(CNC(=O)[C@H](Cc2ccc(OP(=O)(O)O)cc2)NC(=O)Cc2ccc(F)cc2)c1 [MN551]	–	–	103.7	–	–	–	–	–	–	–	–	–	–	–	–	–	remaining activity at 10 µM (BLNK; primary screen, 10 μM): 101%; remaining activity at 10 µM (BRK; primary screen, 10 μM): 4.7 ± 0.7%; remaining activity at 10 µM (CRKL; [2]): 202%; remaining activity at 10 µM (DAPP1; [2]): 81.2%; remaining activity at 10 µM (FES; primary screen, 10 μM): 82.1 ± 4.3%; remaining activity at 10 µM (FYN; [2]): 83.2 ± 0.4%; remaining activity at 10 µM (MATK; [2]): 60.4 ± 2.8%; remaining activity at 10 µM (NCK1; primary screen, 10 μM): 67.4 ± 5.3%; remaining activity at 10 µM (RASA1(SH2dom.C-term.); primary screen, 10 μM): 107%; remaining activity at 10 µM (SHC4; primary screen, 10 μM): 93 ± 4.4%; remaining activity at 10 µM (SRC; primary screen, 10 μM): 70.2 ± 6.8%; remaining activity at 10 µM (VAV3; [2]): 113%
